# Data as given in patent US20040259948A1, “Reciprocal regulation of inflammation and lipid metabolism by liver X receptors” (priority 2003, published 2004).
# Columns and labels:
# [1] = test system: Thioglycolate-elicited murine peritoneal macrophages; experiment: LPS-stimulated macrophages: NO production, iNOS and ABCA1 mRNA; type: cell-based
# Description: To investigate the role of LXRs in host defense, the influence of LXR agonists on macrophage responses to bacterial pathogens was tested. Thioglycolate-elicited peritoneal macrophages were infected in vitro with Escherichia coli. After 18 hours, expression of inducible nitric oxide synthase (iNOS) mRNA and nitric oxide (NO) production were assessed. […] This repression occurs over the same concentration range needed to induce the established LXR target gene ATP-binding cassette transporter A1 (ABCA1). A, LXR agonist inhibits nitrite production in response to bacterial infection. […] Cells were then infected with E. coli (A, B) or treated with 100 ng/ml LPS(C, D, E) as indicated. After 18 h, NO production was determined using a colorimetric assay (A, D), or mRNA levels were determined using real-time quantitative PCR assays (B, C, E). […] The inhibitory effect of LXR agonists on iNOS expression was dose-dependent and occurred over the same range of concentration as that required to induce ATP-binding cassette transporter A1 (ABCA1) (FIGS. 1D and E).
# The anti-inflammatory activity of LXR ligands can be separated from the induction of lipid metabolism genes such as ABCA1. Murine peritoneal macrophages were treated with LPS to induce iNOS gene expression (FIG. 8A) and were assayed for ABCA1 mRNA by real time qPCR (FIG. 8B). NOx production was measured by colorimetric assay. […] The identification of LXR agonists with only anti-inflammatory activity should greatly increase the usefulness of such compounds as therapeutic agents, because they lack the unwanted side effects on lipid metabolism such as elevation of triglyceride levels.
# Cell culture and transfections. Thioglycolate-elicited peritoneal macrophages were cultured in RPMI containing 10% fetal bovine serum (FBS). RAW 264.7 cells were cultured in DMEM containing 10% FBS. For ligand treatments, cells were in cultured medium supplemented with 5% lipoprotein-deficient serum (LPDS) and ligands for 18 h before stimulation. Bacterial infection in vitro was performed as described (Chen, L. M. et al. 1996 Mol Microbiol 21:1101-1115). Transient transfections of RAW 264.7 cells were performed in triplicate in 48-well plates using Superfect reagent (Life Technologies). After transfection, cells were incubated in medium containing 10% LPDS and the indicated ligands for 18 h before stimulation with LPS for an additional 18 h. Luciferase activity was normalized to β-galactosidase activity. NO production was determined spectrophotometrically (Castrillo, A. et al. 2000 Mol Cell Biol 20:1692-1698).
# RNA and protein analysis. Total RNA was extracted using Trizol reagent (Life Technologies, Inc.). Northern blot analysis was carried out as described using radiolabeled cDNA probes (Tontonoz, P. et al. 1998 Cell 93:241-252). Real-time quantitative PCR (TaqMan) analysis was performed using an Applied Biosystems 7700 sequence detector. Two-step real-time PCR was performed as described (Joseph, S. B. et al. 2002 J Biol Chem 277:11019-11025). The primers and probes used are as follows: […]
# [2] = test system: atherosclerotic aortas of Apoe−/− mice; experiment: Gene expression in atherosclerotic aortas of Apoe−/− mice; type: in vivo; conditions: Apoe−/− mice 8 months of age, treated 3 days
# Description: Next, the influence of LXR agonists on inflammatory gene expression induced by IL-1β and TNFα, which have been implicated in the pathogenesis of atherosclerosis, was tested. […] Gene expression was detected by real-time quantitative PCR assays. […] Total RNA was isolated from individual aortas and gene expression was measured by real-time quantitative PCR. P<0.05 for MMP-9 (*) and P<0.01 (**) for ABCA1. […] Thus, LXR agonist reduces expression of an established inflammatory mediator in the vessel wall. RNA and protein analysis. Total RNA was extracted using Trizol reagent (Life Technologies, Inc.). Northern blot analysis was carried out as described using radiolabeled cDNA probes (Tontonoz, P. et al. 1998 Cell 93:241-252). Real-time quantitative PCR (TaqMan) analysis was performed using an Applied Biosystems 7700 sequence detector. Two-step real-time PCR was performed as described (Joseph, S. B. et al. 2002 J Biol Chem 277:11019-11025). The primers and probes used are as follows: Animals. Mice on a mixed background (C57B1/6 and 129v) and Apoe^−/− mice on a C57B1/6 background were maintained on standard chow. […] Irritant contact dermatitis was induced as described (Sheu, M. Y. et al. 2002 J Invest Dermatol 118:94-101). Briefly, 10 μl of 0.03% 12-O-tetradecanoylphorbol-13-acetate (TPA) in acetone was applied to the left ears of male mice. The right ears were treated with vehicle alone. […] After 18 h of TPA treatment, the thickness and weight of 6-mm punch biopsies were determined. Statistical analysis was performed using Student's t-test. Experiments were conducted in accordance of the Animal Research Committee of the University of California, Los Angeles.
# [3] = 100 ng/ml LPS, 18 h, real-time quantitative PCR, FIG. 1E
smiles,measurement,setting,value
O=C(O)Cc1cccc(OCCCN(Cc2cccc(C(F)(F)F)c2Cl)CC(c2ccccc2)c2ccccc2)c1 [GW3965],"nitrite production, dose response","[1]; 100 ng/ml LPS, 18 h, colorimetric assay, FIG. 1D",Dose-dependent inhibition
same,"ABCA1 mRNA expression, dose response",[1]; [3],Reciprocal dose-dependent regulation
same,"iNOS mRNA expression, dose response",[1]; [3],Reciprocal dose-dependent regulation
same,"inhibition of inflammatory genes (NOx production), T1317 compared with GW3965","[1]; LPS, increasing doses, colorimetric assay, FIG. 8A",more effective inhibitor
same,expression of ABCA1 in aorta,[2]; real-time quantitative PCR,induced
same,expression of macrophage-specific marker CD68 in aorta,[2]; real-time quantitative PCR,did not affect
same,expression of MCP-1 in aorta,[2]; versus vehicle,not different
same,expression of MMP-9 in aorta,[2]; versus vehicle,substantially reduced
same,expression of iNOS in aorta,[2]; versus vehicle,not different
